How the values were obtained:
Assay in all cases: scanMAX Kinase assay panel
Assay type in all cases: binding
Settings in all cases: read-out: % control
IRAK3 = IRAK3 (Homo sapiens (Human), UniProt Q9Y616)
How it was run: (§1)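 Using scanMAX, compound selectivity across kinases is determined. The output is % control, bounded by a DMSO control at 100% and a reference positive compound at 0%.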

PDPK1 = PDPK1 (Homo sapiens (Human), UniProt O15530)
How it was run: as §1

[1] = target: RSK2(Kin.Dom.1-N-terminal) (Homo sapiens (Human), UniProt P51812)
How it was run: as §1

MET(M1250T) = MET(M1250T) (Homo sapiens (Human), UniProt P08581, M1250T)
How it was run: as §1

RIPK2 = RIPK2 (Homo sapiens (Human), UniProt O43353)
How it was run: as §1

BRSK1 = BRSK1 (Homo sapiens (Human), UniProt Q8TDC3)
How it was run: as §1

EPHB3 = EPHB3 (Homo sapiens (Human), UniProt P54753)
How it was run: as §1

MARK3 = MARK3 (Homo sapiens (Human), UniProt P27448)
How it was run: as §1

[2] = target: JAK3(JH1domain-catalytic) (Homo sapiens (Human), UniProt P52333)
How it was run: as §1

DDR1 = DDR1 (Homo sapiens (Human), UniProt Q08345)
How it was run: as §1

FLT3-autoinhibited = FLT3-autoinhibited (Homo sapiens (Human), UniProt P36888)
How it was run: as §1

SRMS = SRMS (Homo sapiens (Human), UniProt Q9H3Y6)
How it was run: as §1

ERN1 = ERN1 (Homo sapiens (Human), UniProt O75460)
How it was run: as §1

CDC2L1 = CDC2L1 (Homo sapiens (Human), UniProt P21127)
How it was run: as §1

PRKR = PRKR (Homo sapiens (Human), UniProt P19525)
How it was run: as §1

ALK(L1196M) = ALK(L1196M) (Homo sapiens (Human), UniProt Q9UM73, L1196M)
How it was run: as §1

PIK3CG = PIK3CG (Homo sapiens (Human), UniProt P48736)
How it was run: as §1

CSNK1G1 = CSNK1G1 (Homo sapiens (Human), UniProt Q9HCP0)
How it was run: as §1

STK16 = STK16 (Homo sapiens (Human), UniProt O75716)
How it was run: as §1

FES = FES (Homo sapiens (Human), UniProt P07332)
How it was run: as §1

INSRR = INSRR (Homo sapiens (Human), UniProt P14616)
How it was run: as §1

KIT(V559D) = KIT(V559D) (Homo sapiens (Human), UniProt P10721, V559D)
How it was run: as §1

FGR = FGR (Homo sapiens (Human), UniProt P09769)
How it was run: as §1

GCN2(Kin.Dom.2, S808G) = GCN2(Kin.Dom.2, S808G) (Homo sapiens (Human), UniProt Q9P2K8, S808G)
How it was run: as §1

DLK = DLK (Homo sapiens (Human), UniProt Q12852)
How it was run: as §1

JNK3 = JNK3 (Homo sapiens (Human), UniProt P53779)
How it was run: as §1

HIPK1 = HIPK1 (Homo sapiens (Human), UniProt Q86Z02)
How it was run: as §1

FGFR4 = FGFR4 (Homo sapiens (Human), UniProt P22455)
How it was run: as §1

RET(M918T) = RET(M918T) (Homo sapiens (Human), UniProt P07949, M918T)
How it was run: as §1

PHKG1 = PHKG1 (Homo sapiens (Human), UniProt Q16816)
How it was run: as §1

STK33 = STK33 (Homo sapiens (Human), UniProt Q9BYT3)
How it was run: as §1

PIK3CB = PIK3CB (Homo sapiens (Human), UniProt P42338)
How it was run: as §1

LYN = LYN (Homo sapiens (Human), UniProt P07948)
How it was run: as §1

AURKB = AURKB (Homo sapiens (Human), UniProt Q96GD4)
How it was run: as §1

LTK = LTK (Homo sapiens (Human), UniProt P29376)
How it was run: as §1

EGFR(L861Q) = EGFR(L861Q) (Homo sapiens (Human), UniProt P00533, L861Q)
How it was run: as §1

[3] = target: ABL1(T315I)-nonphosphorylated (Homo sapiens (Human), UniProt P00519, T315I)
How it was run: as §1

Chain of LTK (P29376 17-864): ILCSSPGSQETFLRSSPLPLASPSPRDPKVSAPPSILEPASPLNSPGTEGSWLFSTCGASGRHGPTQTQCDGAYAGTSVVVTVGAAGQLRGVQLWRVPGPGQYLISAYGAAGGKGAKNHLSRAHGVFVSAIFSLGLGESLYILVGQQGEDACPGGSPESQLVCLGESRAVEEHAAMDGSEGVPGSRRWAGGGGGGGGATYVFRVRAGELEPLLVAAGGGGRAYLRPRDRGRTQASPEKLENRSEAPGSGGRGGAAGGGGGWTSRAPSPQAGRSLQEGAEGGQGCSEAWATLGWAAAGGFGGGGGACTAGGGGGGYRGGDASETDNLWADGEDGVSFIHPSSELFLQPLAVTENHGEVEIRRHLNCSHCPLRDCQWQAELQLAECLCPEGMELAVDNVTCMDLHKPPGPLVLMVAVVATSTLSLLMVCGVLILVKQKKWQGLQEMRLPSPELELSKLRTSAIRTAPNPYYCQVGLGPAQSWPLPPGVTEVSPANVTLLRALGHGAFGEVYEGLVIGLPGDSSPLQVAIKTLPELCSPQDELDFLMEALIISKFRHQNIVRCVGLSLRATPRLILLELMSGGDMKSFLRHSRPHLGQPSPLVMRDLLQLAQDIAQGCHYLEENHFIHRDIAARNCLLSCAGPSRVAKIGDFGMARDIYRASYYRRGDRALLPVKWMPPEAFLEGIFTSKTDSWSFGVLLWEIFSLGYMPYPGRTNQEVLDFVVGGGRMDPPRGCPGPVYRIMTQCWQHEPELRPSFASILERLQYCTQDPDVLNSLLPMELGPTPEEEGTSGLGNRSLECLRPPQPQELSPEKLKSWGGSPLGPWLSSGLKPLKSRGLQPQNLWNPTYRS
Chain of AURKB (Q96GD4 whole entry): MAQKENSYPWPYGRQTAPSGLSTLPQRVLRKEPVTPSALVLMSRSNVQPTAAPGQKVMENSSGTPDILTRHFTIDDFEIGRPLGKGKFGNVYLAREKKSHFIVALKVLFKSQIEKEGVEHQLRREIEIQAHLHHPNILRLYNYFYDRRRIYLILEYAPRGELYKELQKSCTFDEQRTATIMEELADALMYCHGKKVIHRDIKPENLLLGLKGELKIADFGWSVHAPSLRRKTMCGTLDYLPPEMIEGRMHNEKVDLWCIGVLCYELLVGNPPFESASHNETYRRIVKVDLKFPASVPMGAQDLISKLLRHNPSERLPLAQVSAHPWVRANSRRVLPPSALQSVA
Chain of HIPK1 (Q86Z02 whole entry): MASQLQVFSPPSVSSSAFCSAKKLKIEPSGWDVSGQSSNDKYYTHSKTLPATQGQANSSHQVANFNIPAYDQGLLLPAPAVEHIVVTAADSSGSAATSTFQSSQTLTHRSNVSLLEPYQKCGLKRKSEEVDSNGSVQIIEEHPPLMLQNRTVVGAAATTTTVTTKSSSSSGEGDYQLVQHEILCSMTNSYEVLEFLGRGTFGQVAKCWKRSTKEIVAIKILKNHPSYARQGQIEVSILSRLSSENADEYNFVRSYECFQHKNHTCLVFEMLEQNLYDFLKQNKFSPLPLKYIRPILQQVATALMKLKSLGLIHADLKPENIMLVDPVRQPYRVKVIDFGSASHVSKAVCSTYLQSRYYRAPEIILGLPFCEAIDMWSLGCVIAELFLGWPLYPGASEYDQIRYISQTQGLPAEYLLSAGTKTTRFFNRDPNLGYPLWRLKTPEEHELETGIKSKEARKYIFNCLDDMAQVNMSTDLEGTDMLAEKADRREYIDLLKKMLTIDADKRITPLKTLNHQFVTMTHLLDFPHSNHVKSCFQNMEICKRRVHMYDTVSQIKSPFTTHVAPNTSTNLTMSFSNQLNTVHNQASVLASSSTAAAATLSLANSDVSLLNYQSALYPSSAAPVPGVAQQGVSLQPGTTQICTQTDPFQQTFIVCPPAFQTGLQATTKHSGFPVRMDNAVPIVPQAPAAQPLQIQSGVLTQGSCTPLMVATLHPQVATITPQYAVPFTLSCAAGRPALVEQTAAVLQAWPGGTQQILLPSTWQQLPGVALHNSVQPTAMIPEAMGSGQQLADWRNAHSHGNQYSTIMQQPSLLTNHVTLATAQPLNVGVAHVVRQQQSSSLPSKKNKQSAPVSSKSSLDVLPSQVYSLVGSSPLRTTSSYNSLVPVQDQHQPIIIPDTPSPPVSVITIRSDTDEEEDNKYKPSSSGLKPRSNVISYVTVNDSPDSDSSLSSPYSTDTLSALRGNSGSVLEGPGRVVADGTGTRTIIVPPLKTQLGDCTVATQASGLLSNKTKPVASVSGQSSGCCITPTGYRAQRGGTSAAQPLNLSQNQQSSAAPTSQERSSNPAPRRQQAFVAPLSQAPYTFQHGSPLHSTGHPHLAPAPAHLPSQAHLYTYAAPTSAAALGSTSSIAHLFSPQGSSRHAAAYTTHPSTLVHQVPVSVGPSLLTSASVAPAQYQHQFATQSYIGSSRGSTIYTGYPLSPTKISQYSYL
Chain of RSK2(Kin.Dom.1-N-terminal) (P51812 68-327): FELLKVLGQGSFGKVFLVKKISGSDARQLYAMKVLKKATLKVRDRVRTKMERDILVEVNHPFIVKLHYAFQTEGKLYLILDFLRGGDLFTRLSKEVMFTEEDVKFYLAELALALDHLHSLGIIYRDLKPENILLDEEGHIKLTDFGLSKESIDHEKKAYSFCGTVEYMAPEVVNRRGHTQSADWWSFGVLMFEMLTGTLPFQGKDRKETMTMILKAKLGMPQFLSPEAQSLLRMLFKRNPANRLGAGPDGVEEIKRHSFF
Chain of CDC2L1 (P21127 whole entry): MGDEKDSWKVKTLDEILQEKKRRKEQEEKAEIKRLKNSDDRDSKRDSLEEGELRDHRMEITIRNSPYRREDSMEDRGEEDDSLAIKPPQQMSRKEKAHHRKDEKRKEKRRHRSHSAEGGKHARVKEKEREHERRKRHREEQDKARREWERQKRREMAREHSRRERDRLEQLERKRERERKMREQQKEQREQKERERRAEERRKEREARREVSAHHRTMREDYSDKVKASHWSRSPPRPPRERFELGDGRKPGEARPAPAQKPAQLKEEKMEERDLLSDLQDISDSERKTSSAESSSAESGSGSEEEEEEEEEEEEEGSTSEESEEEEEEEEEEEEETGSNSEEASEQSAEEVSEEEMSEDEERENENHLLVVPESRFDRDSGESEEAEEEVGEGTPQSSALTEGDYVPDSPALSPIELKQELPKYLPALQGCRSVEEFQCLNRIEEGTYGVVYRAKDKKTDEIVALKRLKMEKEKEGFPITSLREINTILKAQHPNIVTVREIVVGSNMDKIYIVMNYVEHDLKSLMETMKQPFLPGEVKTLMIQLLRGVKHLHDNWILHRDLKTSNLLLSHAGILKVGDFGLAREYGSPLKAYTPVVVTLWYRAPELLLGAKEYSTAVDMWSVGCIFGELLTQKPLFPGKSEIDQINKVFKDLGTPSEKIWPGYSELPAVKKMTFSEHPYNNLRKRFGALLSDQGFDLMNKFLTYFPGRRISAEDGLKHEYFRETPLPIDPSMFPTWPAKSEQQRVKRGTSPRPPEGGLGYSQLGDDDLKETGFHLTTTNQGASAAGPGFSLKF
Chain of JAK3(JH1domain-catalytic) (P52333 822-1111): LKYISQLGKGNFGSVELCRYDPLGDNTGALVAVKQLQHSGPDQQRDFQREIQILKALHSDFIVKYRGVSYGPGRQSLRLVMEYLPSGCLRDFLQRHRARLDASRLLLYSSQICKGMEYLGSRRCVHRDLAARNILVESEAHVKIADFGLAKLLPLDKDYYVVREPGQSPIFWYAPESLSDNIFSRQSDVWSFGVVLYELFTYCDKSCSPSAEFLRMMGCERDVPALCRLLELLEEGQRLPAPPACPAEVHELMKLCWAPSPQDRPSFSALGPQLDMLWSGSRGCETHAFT
Chain of KIT(V559D) (P10721 26-976 V559D): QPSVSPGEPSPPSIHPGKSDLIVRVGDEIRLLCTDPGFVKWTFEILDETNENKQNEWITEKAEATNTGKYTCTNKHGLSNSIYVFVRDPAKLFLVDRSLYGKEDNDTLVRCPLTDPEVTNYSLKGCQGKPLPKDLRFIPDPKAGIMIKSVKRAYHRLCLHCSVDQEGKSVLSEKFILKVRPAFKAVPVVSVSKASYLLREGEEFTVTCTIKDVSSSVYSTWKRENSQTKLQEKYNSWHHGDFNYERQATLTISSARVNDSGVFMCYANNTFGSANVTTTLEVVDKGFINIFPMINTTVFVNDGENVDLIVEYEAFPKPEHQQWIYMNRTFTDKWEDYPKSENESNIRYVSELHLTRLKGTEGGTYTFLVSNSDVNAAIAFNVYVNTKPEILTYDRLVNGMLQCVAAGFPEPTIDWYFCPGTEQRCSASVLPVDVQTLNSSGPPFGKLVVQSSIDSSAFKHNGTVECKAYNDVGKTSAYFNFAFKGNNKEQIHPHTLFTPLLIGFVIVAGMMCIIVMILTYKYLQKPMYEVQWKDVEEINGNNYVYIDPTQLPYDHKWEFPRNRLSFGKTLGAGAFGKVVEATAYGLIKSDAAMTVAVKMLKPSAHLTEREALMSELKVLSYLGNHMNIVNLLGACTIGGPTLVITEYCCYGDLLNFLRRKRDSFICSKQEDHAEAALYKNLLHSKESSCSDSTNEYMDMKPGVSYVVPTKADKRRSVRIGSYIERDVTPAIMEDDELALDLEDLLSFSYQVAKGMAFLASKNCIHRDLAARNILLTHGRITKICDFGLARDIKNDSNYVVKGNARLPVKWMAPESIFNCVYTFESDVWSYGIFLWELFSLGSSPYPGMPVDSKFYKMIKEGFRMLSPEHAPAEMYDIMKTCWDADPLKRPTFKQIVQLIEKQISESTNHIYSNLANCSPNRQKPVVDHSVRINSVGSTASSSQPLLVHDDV
Chain of STK16 (O75716 whole entry): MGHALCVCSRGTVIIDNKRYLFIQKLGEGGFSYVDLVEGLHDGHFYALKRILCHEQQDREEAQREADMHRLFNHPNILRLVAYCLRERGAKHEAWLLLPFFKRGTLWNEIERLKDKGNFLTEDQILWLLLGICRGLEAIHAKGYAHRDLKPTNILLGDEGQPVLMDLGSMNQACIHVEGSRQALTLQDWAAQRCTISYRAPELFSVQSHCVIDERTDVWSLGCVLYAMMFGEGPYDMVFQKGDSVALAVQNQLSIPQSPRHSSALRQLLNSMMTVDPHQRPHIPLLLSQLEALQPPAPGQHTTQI

SMILES	remaining binding at 1 µM (IRAK3) [%]	remaining binding at 1 µM (PDPK1) [%]	remaining binding at 1 µM [1] [%]	remaining binding at 1 µM (MET(M1250T)) [%]	remaining binding at 1 µM (RIPK2) [%]	remaining binding at 1 µM (BRSK1) [%]	remaining binding at 1 µM (EPHB3) [%]	remaining binding at 1 µM (MARK3) [%]	remaining binding at 1 µM [2] [%]	remaining binding at 1 µM (DDR1) [%]	remaining binding at 1 µM (FLT3-autoinhibited) [%]	remaining binding at 1 µM (SRMS) [%]	remaining binding at 1 µM (ERN1) [%]	remaining binding at 1 µM (CDC2L1) [%]	remaining binding at 1 µM (PRKR) [%]	remaining binding at 1 µM (ALK(L1196M)) [%]	remaining binding at 1 µM (PIK3CG) [%]	remaining binding at 1 µM (CSNK1G1) [%]	remaining binding at 1 µM (STK16) [%]	remaining binding at 1 µM (FES) [%]	also measured
CCNc1cc(Nc2ccc(C(=O)N3CCC(N4CCOCC4)CC3)cc2OC)nc2[nH]cc(C#N)c12 [Example 18, 4-(ethylamino)-6-((2-methoxy-4-(4-morpholinopiperidine-1-carbonyl)phenyl)amino)-1H-pyrrolo[2,3-b]pyridine-3-carbonitrile]	84	99	78	100	86	94	93	100	54	98	82	80	24	100	95	13	100	43	60	89	remaining binding at 1 µM (INSRR): 24%; remaining binding at 1 µM (KIT(V559D)): 33%; remaining binding at 1 µM (FGR): 100%; remaining binding at 1 µM (GCN2(Kin.Dom.2, S808G)): 97%; remaining binding at 1 µM (DLK): 79%; remaining binding at 1 µM (JNK3): 0%; remaining binding at 1 µM (HIPK1): 63%; remaining binding at 1 µM (FGFR4): 80%; remaining binding at 1 µM (RET(M918T)): 99%; remaining binding at 1 µM (PHKG1): 16%; remaining binding at 1 µM (STK33): 17%; remaining binding at 1 µM (PIK3CB): 89%; remaining binding at 1 µM (LYN): 90%; remaining binding at 1 µM (AURKB): 73%; remaining binding at 1 µM (LTK): 6.2%; remaining binding at 1 µM (EGFR(L861Q)): 85%; remaining binding at 1 µM [3]: 96%
CCNc1cc(Nc2ccc(C(=O)N3CCC(N4CCOCC4)CC3)cc2OC)nc2[nH]cc(C(F)(F)F)c12 [Example 57, (4-((4-(ethylamino)-3-(trifluoromethyl)-1H-pyrrolo[2,3-b]pyridin-6-yl)amino)-3-methoxyphenyl) (4-morpholinopiperidin-1-yl)methanone]	79	86	96	100	94	94	85	92	100	98	92	96	61	90	93	14	87	88	64	87	remaining binding at 1 µM (INSRR): 60%; remaining binding at 1 µM (KIT(V559D)): 77%; remaining binding at 1 µM (FGR): 78%; remaining binding at 1 µM (GCN2(Kin.Dom.2, S808G)): 91%; remaining binding at 1 µM (DLK): 100%; remaining binding at 1 µM (JNK3): 52%; remaining binding at 1 µM (HIPK1): 54%; remaining binding at 1 µM (FGFR4): 92%; remaining binding at 1 µM (RET(M918T)): 100%; remaining binding at 1 µM (PHKG1): 26%; remaining binding at 1 µM (STK33): 16%; remaining binding at 1 µM (PIK3CB): 100%; remaining binding at 1 µM (LYN): 100%; remaining binding at 1 µM (AURKB): 81%; remaining binding at 1 µM (LTK): 20%; remaining binding at 1 µM (EGFR(L861Q)): 94%; remaining binding at 1 µM [3]: 100%

— patent publication US11117892B2, “Pyrrolo-pyridine derivative compound, method for preparing same, and pharmaceutical composition containing same as active ingredient for prevention or treatment of protein kinase-related diseases” (DAEGU-GYEONGBUK MEDICAL INNOVATION FOUNDATION, priority 2017, dated 2021)
